≈ marks a conversion by molar mass, not a printed value.
Legend:
Assay type in all cases: cell-based
[1] = tested on: Proteus mirabilis TB-617; experiment: MIC by agar dilution method, Proteus mirabilis TB-617; conditions: TB617, P. mirabilis TB-617 (not marked as resistant), 10^6 CFU/ml, 37° C., 18 to 20 hours, read-out: Minimum Inhibitory Concentration (MIC)
[2] = tested on: Pseudomonas aeruginosa TB-151; experiment: MIC by agar dilution method, Pseudomonas aeruginosa TB-151; conditions: TB151, P. aeruginosa TB-151, tobramycin resistant strain, 10^6 CFU/ml, 37° C., 18 to 20 hours, read-out: Minimum Inhibitory Concentration (MIC)
[3] = tested on: Proteus vulgaris TB-615; experiment: MIC by agar dilution method, Proteus vulgaris TB-615; conditions: TB615, P. vulgaris TB-615, tobramycin resistant strain, 10^6 CFU/ml, 37° C., 18 to 20 hours, read-out: Minimum Inhibitory Concentration (MIC)

For `NC[C@H]1O[C@H](O[C@H]2[C@H](O)[C@@H](O[C@H]3O[C@H](CO)[C@@H](O)[C@H](N)[C@H]3O)[C@H](NC3=NCC[C@@H]3O)C[C@@H]2N)[C@H](N)C[C@@H]1O` [[A], 1N-[(S)(-)-3-hydroxy-1-pyrrolin-2-yl]tobramycin], which MIC [1] is on record?
Its MIC is 3.1 µg/mL (≈ 5.63 µM).

What about the MIC [2] of the same molecule?
Its MIC is 25 µg/mL (≈ 45.4 µM).

What about the MIC [3] of the same molecule?
The MIC was 25 µg/mL (≈ 45.4 µM).

How did the MIC [1] turn out when `NC[C@H]1O[C@H](O[C@H]2[C@H](O)[C@@H](O[C@H]3O[C@H](CO)[C@@H](O)[C@H](N)[C@H]3O)[C@H](NC3=NCCC[C@@H]3O)C[C@@H]2N)[C@H](N)C[C@@H]1O` [[B], 1N-[(S)(-)-3-hydroxy-3,4,5,6-tetrahydropyridin-2-yl]tobramycin] was run?
The MIC was 3.1 µg/mL (≈ 5.49 µM).

And the MIC [2]?
The MIC was 25 µg/mL (≈ 44.3 µM).

What about the MIC [3] of the same molecule?
Its MIC is 25 µg/mL (≈ 44.3 µM).

`NC[C@H]1O[C@H](O[C@H]2[C@H](O)[C@@H](O[C@H]3O[C@H](CO)[C@@H](O)[C@H](N)[C@H]3O)[C@H](N)C[C@@H]2N)[C@H](N)C[C@@H]1O` [TOB, tobramycin, reference compound] was tested. Which MIC [1] did it give?
Its MIC is 6.2 µg/mL (≈ 13.3 µM).

And the MIC [2]?
Its MIC is 50 µg/mL (≈ 107 µM).

What about the MIC [3] of the same molecule?
Its MIC is 50 µg/mL (≈ 107 µM).

Reference: patent US4248865A, “Novel aminoglycoside derivatives” (Shionogi & Co., Ltd., priority 1978, dated 1981)
